Experimental data from patent US9688664B2, “Modulators of fatty acid amide hydrolase” (JANSSEN PHARMACEUTICA NV, priority 2010, dated 2017).
“Also recorded” adds a separate entry of the source. Where two headings read alike, the source gives them in different places.

Tests used:
[1] = tested on: rat; experiment: Primary Observation (Irwin) Test in the rat; format: in vivo; settings: for Hypothermia: at 15 to 60 min and at 180 min; for Decreased muscle tone (rats affected/tested): at 60 to 120 min
Method: Primary Observation (Irwin) Test in the Rat
The method, which detects the first toxic dose, the active dose-range and the main effects of a test substance on behavior and physiological function, follows that described by Irwin et al., Psychopharmacologia, 1968, 13, 222-257. […] All animals within a treatment group were observed simultaneously. Behavioral modifications, physiological and neurotoxicity symptoms, rectal temperature and pupil diameter were recorded according to a standardized observation grid derived from that of Irwin. The grid contains the following items: death, convulsions, tremor, Straub tail, altered activity, jumping, abnormal gait (rolling, tip-toe), motor uncoordination, altered abdominal muscle tone, loss of grasping, akinesia, catalepsy, loss of traction, loss of balance, fore-paw treading, writhes, piloerection, stereotypies (sniffing, chewing, head movements), head twitches, scratching, altered respiration, aggression, altered fear/startle, altered reactivity to touch, ptosis, exophthalmia, loss of righting reflex, loss of corneal reflex, analgesia, defecation/diarrhea, salivation, lacrimation, rectal temperature (hypothermia/hyperthermia) and pupil diameter (myosis/mydriasis). The test substances were evaluated at 2 doses (10 and 60 mg/kg), administered p.o. immediately before the test, and compared with a vehicle control group. Observations were performed 15, 30, 60, 120 and 180 minutes after administration of the test substances/vehicles and also 24 hours later.

[2] = tested on: rats; settings: cited from earlier work
[3] = target: T1, FAAH (Homo sapiens (Human), UniProt O00519); settings: cited from earlier work
T1 sequence (O00519 whole entry): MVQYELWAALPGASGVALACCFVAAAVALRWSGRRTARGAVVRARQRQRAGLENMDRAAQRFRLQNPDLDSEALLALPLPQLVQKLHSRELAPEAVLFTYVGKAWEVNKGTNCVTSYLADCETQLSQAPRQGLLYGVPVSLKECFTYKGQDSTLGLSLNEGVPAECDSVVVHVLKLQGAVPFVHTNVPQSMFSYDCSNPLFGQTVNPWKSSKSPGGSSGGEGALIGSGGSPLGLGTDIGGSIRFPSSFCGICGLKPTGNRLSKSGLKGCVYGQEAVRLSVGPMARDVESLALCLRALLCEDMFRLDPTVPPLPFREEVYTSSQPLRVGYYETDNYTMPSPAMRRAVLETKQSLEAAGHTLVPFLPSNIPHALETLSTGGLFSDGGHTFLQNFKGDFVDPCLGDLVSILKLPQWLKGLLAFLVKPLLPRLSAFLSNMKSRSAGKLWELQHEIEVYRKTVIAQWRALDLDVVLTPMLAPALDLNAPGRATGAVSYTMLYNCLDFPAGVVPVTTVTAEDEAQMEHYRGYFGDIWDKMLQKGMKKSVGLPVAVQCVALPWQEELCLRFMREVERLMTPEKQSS

[4] = tested on: rats; settings: cited from earlier work; remark: listed apart in the source
[5] = tested on: CREAE mice; settings: cited from earlier work
[6] = in vivo; cited from earlier work
[7] = in vivo; cited from earlier work; remark: listed apart in the source
[8] = tested on: rats; settings: cited from earlier work; remark: listed apart in the source
[9] = tested on: rats; settings: rat; cited from earlier work
[10] = target: T1, FAAH; experiment: Assay Method 1: human FAAH assay (3H-anandamide hydrolysis in cell homogenate); format: biochemical; settings: average of results
Method: A. Transfection of Cells with Human FAAH
(§1) A 10-cm tissue culture dish with a confluent monolayer of SK-N-MC cells was split 2 days (d) prior to transfection. Using sterile technique, the media was removed and the cells were detached from the dish by the addition of trypsin. One fifth of the cells were then placed onto a new 10-cm dish. Cells were grown in a 37° C. incubator with 5% CO2 in Minimal Essential Media Eagle with 10% Fetal Bovine Serum. After 2 d, cells were approximately 80% confluent. These cells were removed from the dish with trypsin and pelleted in a clinical centrifuge. The pellet was re-suspended in 400 μL complete media and transferred to an electroporation cuvette with a 0.4 cm gap between the electrodes. Supercoiled human FAAH cDNA (1 μg) was added to the cells and mixed. The voltage for the electroporation was set at 0.25 kV, and the capacitance was set at 960 μF. After electroporation, the cells were diluted into complete media (10 mL) and plated onto four 10-cm dishes. Because of the variability in the efficiency of electroporation, four different concentrations of cells were plated. The ratios used were 1:20, 1:10, and 1:5, with the remainder of the cells being added to the fourth dish. The cells were allowed to recover for 24 h before adding the selection media (complete media with 600 μg/mL G418). After 10 d, dishes were analyzed for surviving colonies of cells. […]

[11] = target: rat FAAH (Rattus norvegicus (Rat), UniProt P97612); experiment: Assay Method 2: rat FAAH assay (3H-anandamide hydrolysis in cell homogenate); format: biochemical; settings: average of results
Sequence of rat FAAH (P97612 whole entry): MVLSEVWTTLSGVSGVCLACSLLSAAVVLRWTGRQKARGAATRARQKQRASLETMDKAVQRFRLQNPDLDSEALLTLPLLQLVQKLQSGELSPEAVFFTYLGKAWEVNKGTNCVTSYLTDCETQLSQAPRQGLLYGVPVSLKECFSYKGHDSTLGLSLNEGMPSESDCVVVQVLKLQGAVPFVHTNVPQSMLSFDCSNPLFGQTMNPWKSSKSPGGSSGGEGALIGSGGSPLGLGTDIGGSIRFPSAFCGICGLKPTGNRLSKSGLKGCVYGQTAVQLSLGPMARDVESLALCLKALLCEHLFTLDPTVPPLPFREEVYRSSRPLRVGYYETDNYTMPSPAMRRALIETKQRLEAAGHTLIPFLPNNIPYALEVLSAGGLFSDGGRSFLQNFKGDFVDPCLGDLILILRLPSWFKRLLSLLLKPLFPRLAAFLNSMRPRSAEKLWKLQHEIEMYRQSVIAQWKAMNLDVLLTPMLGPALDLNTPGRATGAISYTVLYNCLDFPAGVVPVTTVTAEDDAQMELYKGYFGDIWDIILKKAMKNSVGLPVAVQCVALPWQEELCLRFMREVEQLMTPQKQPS
Method: A. Transfection of Cells with Rat FAAH
as §1, with “rat” for “human”

[12] = target: CYP2D6 (Homo sapiens (Human), UniProt P10635); experiment: Drug-Drug Interaction (DDI) assay, CYP inhibition in human liver microsomes
Sequence of CYP2D6 (P10635 whole entry): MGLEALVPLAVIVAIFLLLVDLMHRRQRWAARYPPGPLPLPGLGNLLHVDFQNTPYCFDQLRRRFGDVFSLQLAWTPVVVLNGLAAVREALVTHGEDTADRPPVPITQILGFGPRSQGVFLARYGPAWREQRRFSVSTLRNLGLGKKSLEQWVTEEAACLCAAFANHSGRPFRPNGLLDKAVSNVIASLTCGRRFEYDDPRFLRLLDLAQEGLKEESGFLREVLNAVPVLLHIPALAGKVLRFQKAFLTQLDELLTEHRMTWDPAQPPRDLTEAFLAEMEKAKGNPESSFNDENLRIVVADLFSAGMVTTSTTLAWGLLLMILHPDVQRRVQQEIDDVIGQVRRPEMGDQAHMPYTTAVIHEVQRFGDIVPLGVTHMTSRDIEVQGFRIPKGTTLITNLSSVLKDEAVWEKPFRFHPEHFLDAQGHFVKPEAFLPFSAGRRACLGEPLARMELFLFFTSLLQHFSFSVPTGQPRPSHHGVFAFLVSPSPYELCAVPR
Method: Drug-Drug Interaction (DDI) Assay
The assay was set up and executed using a Biomek FXp robotic liquid handling workstation (Beckman Coulter Corp., Fullerton, Calif.), integrated with a Cytomat shaking incubator set at 37° C. […] A batch of human liver microsomes from 50 donors, pooled and characterized by BD Gentest, (Cat #457111, lot 01220, 20 mg/mL in 250 mM sucrose) was used. Each substrate was incubated at a protein concentration of 0.1, 0.15 or 0.2 mg/mL in a total incubation volume of 0.16 mL. The incubates were prepared in 100 mM potassium phosphate buffer (pH 7.4) supplemented with 5 mM magnesium chloride and 1 mM EDTA. Quinidine was used as a positive control inhibitor for CYP2D6. Quinidine was prepared as a working solution in organic solvent (primarily methanol, with DMSO and acetonitrile as secondary solvents) and was spiked into the microsomal suspension to yield the desired concentration level. The solution was then serially diluted with additional microsomal suspension to yield eight concentration levels. Final organic content was less than 0.07%. […] The final organic content was 0.2%. Incubations were performed in triplicate for each probe substrate.
The control inhibitor (quinidine) and marker substrate (dextromethorphan or bufuralol) were transferred to the incubation vessels (60 μL aliquots each). After a pre-incubation period at 37° C., the reactions were initiated by the addition of a 40 μL aliquot of NADPH regenerating system (BD Gentest). […] Incubation times were 12 minutes for both dextromethorphan and bufuralol. Reactions were terminated by the direct addition of acetonitrile (160 μL) to the incubation mix followed by transfer to a pooling plate containing additional acetonitrile (400 μL).
The incubation reactions were pooled by equal test compound or control inhibitor concentration, transferred to a Phenomenex Strata™ Impact protein precipitation filter plate containing acetonitrile and internal standards (100 μL of a mixture of the following deuterated compounds ranging in concentration from 0.5 to 2.8 μM: hydroxybufuralol-d9, dextrorphan-d3). The resulting filtrate was evaporated to dryness under a nitrogen flow, then reconstituted in 250 μL mobile phase (1:1 methanol:water, containing 0.1% acetic acid). Samples and standards were analyzed on a Sciex API4000 triple quadrupole mass spectrometer. The data were acquired in Analyst 1.4.1 (Applied Biosystems/MDS Sciex). For IC50 assays, the area ratios of the metabolite and internal standard chromatographic peaks were transferred to SigmaPlot (version 8.0) and plotted on a semi-log scale (percent residual activity vs. inhibitor concentration) to determine the IC50 value.

[13] = read-out: 2D6 Bufuralol IC50, substrate bufuralol
[14] = read-out: 2D6 Dextromethorphan IC50, substrate dextromethorphan

SMILES: Cl.O=C(Nc1cnccc1Cl)N1CCN(Cc2ccc3c(c2)OC(F)(F)O3)CC1
- Increased reactivity to touch (rats affected/tested) ([1]; 10 mg/kg p.o., at 180 min, hydrochloride): 1 out of 4
- Sedative/depressant effects (sedation, motor signs and hypothermia) ([1]; 60 mg/kg p.o.): not observed
- Increased abdominal muscle tone (rats affected/tested) ([1]; 60 mg/kg p.o., at 60 min): 1 out of 4
- Increased reactivity to touch (rats affected/tested) ([1]; 60 mg/kg p.o., at 60 min): 1 out of the 4
- Increased reactivity to touch (rats affected/tested) ([1]; 60 mg/kg p.o., at 180 min): 1 out of the 4
- General effects in the Irwin Test ([1]; dose-range 10-60 mg/kg p.o.): weak and transient arousing effects in only one rat
- Other signs ([1]; up to 24 hours after administration, 10-60 mg/kg p.o.): no other signs were observed

SMILES: O=C(CCCCCCc1ccccc1)c1ncc(-c2ccccn2)o1 [OL-135]
- analgesic efficacy/activity, hot plate [2]: analgesic activity
- FAAH inhibition [3]: potent inhibitor
- analgesic activity, tail immersion [4]: analgesic activity

SMILES: CCCCCCCCCCCCCCCCS(=O)(=O)F [AM374]
- spasticity [5]: significantly reduce spasticity

SMILES: Cl.O=C(Nc1cccnc1)N1CCN(Cc2ccc3c(c2)OC(F)(F)O3)CC1 [Comparator Compound HCl]
- Increased reactivity to touch (rats affected/tested) ([1]; 10 mg/kg p.o., at 15 min): all 3 rats; also recorded: (3/3) at 15
- Sedative/depressant effects (sedation, motor signs and hypothermia) ([1]; 60 mg/kg p.o.): presence of sedative/depressant effects
- Sedation (rats affected/tested) ([1]; 60 mg/kg p.o., 15 to 120 min): all 3 rats; also recorded: (3/3) 15 to 120 min
- Hypothermia ([1]; 60 mg/kg p.o.): induced hypothermia; also recorded: slight induction at 15
- Decreased muscle tone (rats affected/tested) ([1]; 60 mg/kg p.o.): all 3 rats; also recorded: (3/3) at 60 to 120
- Abnormal gait (rolling) (rats affected/tested) ([1]; 60 mg/kg p.o., at 15 min): all 3 rats; also recorded: (3/3) at 15 min

SMILES: O=C(Nc1ccccc1)N1CCN(c2nc(-c3ccccc3)ns2)CC1 [4-(3-Phenyl-[1,2,4]thiadiazol-5-yl)-piperazine-1-carboxylic acid phenylamide]
- efficacy in neuropathic pain model [6]: efficacious
- efficacy in acute burn injury pain model [7]: efficacious

SMILES: NC(=O)c1cccc(-c2cccc(OC(=O)NC3CCCCC3)c2)c1 [URB-597]
- efficacy in model of anxiety [8]: efficacy
- analgesic efficacy/activity, hot plate [2]: analgesic efficacy
- analgesic efficacy, formalin test [9]: analgesic efficacy

SMILES: O=C(Nc1cnccc1Cl)N1CCN(Cc2ccc3c(c2)OC(F)(F)O3)CC1 [Example 1]
- IC50 [10]: 0.075 µM
- IC50 [11]: 0.32 µM
- Increased reactivity to touch (rats affected/tested) ([1]; 10 mg/kg p.o., at 180 min): (1/4) at
- Abnormal gait (rats affected/tested) ([1]; 60 mg/kg p.o.): (0/4)
- Hypothermia (rats affected/tested) ([1]; 60 mg/kg p.o.): (0/4)
- Sedation (rats affected/tested) ([1]; 60 mg/kg p.o.): (0/4)
- Increased abdominal muscle tone (rats affected/tested) ([1]; 60 mg/kg p.o., at 60 min): (1/4) at 60 min
- Increased reactivity to touch (rats affected/tested) ([1]; 60 mg/kg p.o., at 60 min): (1/4) at 60 min
- Increased reactivity to touch (rats affected/tested) ([1]; 60 mg/kg p.o., at 180 min): (1/4) at 180 min
- IC50 [12, 13]: 24 µM
- IC50 [12, 14]: 11 µM

SMILES: O=C(Nc1cccnc1)N1CCN(Cc2ccc3c(c2)OC(F)(F)O3)CC1 [Comparator Compound]
- Increased reactivity to touch (rats affected/tested) ([1]; 10 mg/kg p.o., at 15 min): all rats tested
- Sedation (rats affected/tested) ([1]; 60 mg/kg p.o., 15 to 120 min): all rats tested
- Hypothermia ([1]; 60 mg/kg p.o.): induced hypothermia
- Decreased muscle tone (rats affected/tested) ([1]; 60 mg/kg p.o.): all rats
- Abnormal gait (rolling) (rats affected/tested) ([1]; 60 mg/kg p.o., at 15 min): all rats tested
- IC50 [12, 13]: 3.2 µM
- IC50 [12, 14]: 2 µM
